The values that follow come from ChEMBL document CHEMBL1201862, “PubChem BioAssay data set” (2004).

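Test compounds were applied to cells in 96-well plates for 48 hours at 5 doses. Abbreviation: GI50, concentration required for 50% inhibition of growth.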 Activity calls are given as the source filed them. No stated cut-off is given here; in the data, active = GI50 up to about 1.1 µM and inactive = higher.

Some test systems named below: SF-539; M14; UACC-257; A549; A498; COLO 205; SNB-78; LOX IMVI; KM-20L2; HCT-116; RPMI-8226; U-251; DLD-1; SK-OV-3; EKVX; RXF 393; MCF7; PC-3; T47D; MDA-MB-231.
Common to all, as to assay: growth of human tumour cells (NCI), 48 h

Turning to `[O-][S+]1c2ccccc2N=C(c2ccc3ccccc3c2)CC1c1ccccc1` (stereo unspecified), the GI50 in the experiment with SF-539 is 18.4 µM (inactive); in the experiment with M14, 47.2 µM (inactive); with UACC-257, 28.1 µM (inactive); in the experiment on A549, 21.3 µM (inactive); in the experiment with A498, 17.4 µM (inactive); in the experiment on COLO 205, 19.1 µM (inactive). For the same compound, the GI50 is 47.3 µM (inactive) with SNB-78; 21.1 µM (inactive) in the experiment with LOX IMVI; 18.7 µM (inactive) in the experiment with KM-20L2; 19.1 µM (inactive) in the experiment with HCT-116; 29.6 µM (inactive) in the experiment on RPMI-8226; 18.6 µM (inactive) in the experiment with U-251. Further, the GI50 with DLD-1 was 19 µM (inactive); in the experiment with SK-OV-3, 36.2 µM (inactive); in the experiment with EKVX it was 25.1 µM (inactive).

Turning to `COC(=O)C(NC(=O)c1ccccc1)C(c1ccc(Cl)cc1)P(=O)(OC)OC` (stereo unspecified), the GI50 with SF-539, in the experiment with M14, in the experiment with UACC-257, in the experiment on A549, in the experiment on A498 and in the experiment with COLO 205 was > 100 µM (inactive) each time. Also, the GI50 with SNB-78, in the experiment on LOX IMVI, in the experiment on KM-20L2, in the experiment with HCT-116, in the experiment with RPMI-8226 and with U-251 was > 100 µM (inactive) each time. For the same compound, the GI50 with RXF 393 is 33.9 µM (inactive); with DLD-1 it was > 100 µM (inactive); in the experiment with SK-OV-3 it was > 100 µM (inactive); in the experiment on EKVX it was > 100 µM (inactive).

As for `Cc1ccc2nc3c(C(=O)NCCN(C)C)cccc3cc2c1`, the GI50 with SF-539 was 3.15 µM (inactive); in the experiment on MCF7, 2.81 µM (inactive); with UACC-257 it was 2.09 µM (inactive); in the experiment with A549 it was 1.33 µM (inactive); in the experiment on A498, 1.56 µM (inactive); with COLO 205, 1.02 µM (active). Further, the GI50 is 4.24 µM (inactive) in the experiment on SNB-78; 1.71 µM (inactive) in the experiment on LOX IMVI; 0.75 µM (active) with KM-20L2; 0.807 µM (active) in the experiment on HCT-116; 1.58 µM (inactive) in the experiment with RPMI-8226; 3.26 µM (inactive) in the experiment with U-251. Further, the GI50 in the experiment on RXF 393 was 2.02 µM (inactive); with DLD-1 it was 2.01 µM (inactive); with SK-OV-3 it was 2.39 µM (inactive); in the experiment with EKVX it was 0.802 µM (active).

For `SC1=NC2=C(CSC/C2=C\c2cccc(Br)c2)C(c2cccc(Br)c2)N1` (stereo unspecified), the GI50 in the experiment with SF-539 was > 100 µM (inactive); with M14, 46.2 µM (inactive); in the experiment on MCF7, 64.1 µM (inactive); with UACC-257, > 100 µM (inactive); in the experiment with A549, > 100 µM (inactive); in the experiment with A498, > 100 µM (inactive). Moreover, the GI50 with COLO 205 was 36.2 µM (inactive); in the experiment on PC-3 it was 46.7 µM (inactive); in the experiment on LOX IMVI, > 100 µM (inactive); in the experiment on T47D it was 25 µM (inactive); in the experiment on HCT-116, 43.7 µM (inactive); with RPMI-8226 it was 64.7 µM (inactive). Moreover, the GI50 in the experiment with U-251 was > 100 µM (inactive); with RXF 393 it was > 100 µM (inactive); in the experiment on SK-OV-3 it was > 100 µM (inactive); in the experiment on MDA-MB-231 it was > 100 µM (inactive); with EKVX, 42.3 µM (inactive).

Consider `CC(C)C(/C=C/c1ccc(Cl)cc1)=N\NC(=O)N/N=C(/C=C/c1ccc(Cl)cc1)C(C)C`, for which the GI50 with SF-539 was 16.7 µM (inactive); in the experiment on M14, 24.2 µM (inactive); with MCF7, > 100 µM (inactive); in the experiment on UACC-257 it was 57.5 µM (inactive); in the experiment on A549 it was 19 µM (inactive); in the experiment with A498 it was 18.1 µM (inactive). In addition, the GI50 with COLO 205 is 45.3 µM (inactive); in the experiment with PC-3, > 100 µM (inactive); in the experiment on LOX IMVI, > 10 µM (inactive); with T47D, 40.8 µM (inactive); with HCT-116 it was 20.2 µM (inactive); with RPMI-8226 it was > 100 µM (inactive). Besides, the GI50 in the experiment on U-251 was 16.9 µM (inactive); with RXF 393, 20.7 µM (inactive); with SK-OV-3, 32.4 µM (inactive); in the experiment on MDA-MB-231, 22.3 µM (inactive); in the experiment on EKVX, 21.4 µM (inactive).

As for `CCOc1ccc(O)cc1[P+](c1ccccc1)(c1ccccc1)c1ccccc1`, the GI50 is 3.83 µM (inactive) in the experiment with SF-539; 4.45 µM (inactive) in the experiment on M14; 0.647 µM (active) with UACC-257; 4.69 µM (inactive) with A549; 11.7 µM (inactive) in the experiment with A498; 2.86 µM (inactive) in the experiment with COLO 205. Moreover, the GI50 with SNB-78 is 4.15 µM (inactive); with LOX IMVI, 2.59 µM (inactive); in the experiment with KM-20L2, 2.46 µM (inactive); in the experiment with HCT-116 it was 2.19 µM (inactive); in the experiment on RPMI-8226, 3.5 µM (inactive); in the experiment on U-251 it was 2.54 µM (inactive). The GI50 was 3.59 µM (inactive) in the experiment with RXF 393, 4.14 µM (inactive) with DLD-1, 6.53 µM (inactive) with SK-OV-3 and 11.5 µM (inactive) in the experiment with EKVX.

Regarding `CCOC(=O)N1CCN(c2ccc3c(C)cc(C)nc3n2)CC1`, the GI50 in the experiment with SF-539, with M14, in the experiment with MCF7, in the experiment with UACC-257, with A549 and in the experiment with A498 was > 100 µM (inactive) each time. Also, the GI50 in the experiment on COLO 205, in the experiment with PC-3, with LOX IMVI, in the experiment with T47D, in the experiment on HCT-116 and in the experiment on RPMI-8226 was > 100 µM (inactive) throughout. Also, the GI50 with U-251, with RXF 393, in the experiment with SK-OV-3, in the experiment on MDA-MB-231 and in the experiment with EKVX was > 100 µM (inactive) each time.

Turning to `COc1ccc2c3c1O[C@H]1C[C@@H](O)C=C[C@@]31CCN(C)C2` [GALANTAMINE], the GI50 with SF-539 is > 18.9 µM (inactive); in the experiment on MCF7, > 36 µM (inactive); in the experiment on UACC-257, > 150 µM (inactive); in the experiment with A549, > 150 µM (inactive); in the experiment with A498, > 150 µM (inactive); in the experiment on COLO 205, > 150 µM (inactive). Further, the GI50 in the experiment with SNB-78 was 103 µM (inactive); in the experiment with LOX IMVI it was > 150 µM (inactive); in the experiment on KM-20L2, > 150 µM (inactive); with HCT-116, > 150 µM (inactive); with RPMI-8226, > 150 µM (inactive); with U-251 it was > 150 µM (inactive). Moreover, the GI50 in the experiment with RXF 393 is > 150 µM (inactive); with DLD-1 it was 50 µM (inactive); in the experiment on SK-OV-3 it was > 150 µM (inactive); in the experiment on EKVX, > 150 µM (inactive).

As for `O=c1cc[nH]c(=O)[nH]1` [URACIL], the GI50 with SF-539 was 378 µM (inactive); in the experiment on MCF7 it was 398 µM (inactive); in the experiment on UACC-257, 804 µM (inactive); in the experiment with A549 it was 435 µM (inactive); with A498, 6.82 µM (inactive); in the experiment on COLO 205 it was 187 µM (inactive). The GI50 is 475 µM (inactive) in the experiment with SNB-78; 375 µM (inactive) with LOX IMVI; 426 µM (inactive) with KM-20L2; 261 µM (inactive) in the experiment with HCT-116; > 946 µM (inactive) in the experiment on RPMI-8226; 370 µM (inactive) in the experiment on U-251. The GI50 in the experiment on RXF 393 is 316 µM (inactive); in the experiment on DLD-1, 532 µM (inactive); in the experiment on SK-OV-3, 813 µM (inactive); in the experiment on EKVX, 294 µM (inactive).
